Experimental data: patent US7906488B2, “Sphingolipids in treatment and prevention of steatosis and of steatosis or of hepatotoxicity and its sequelae” (Nederlandse Organisatie Voor …, priority 2004, dated 2011)

How the values were obtained:
APOE*3Leiden mice [1] = experiment: In vivo clearance of VLDL-like TG-rich emulsion particles; details: 1% PS diet
Protocol: (§1) Plasma parameters: Tail blood samples were collected in EDTA-coated cups, or in paraoxon-coated capillaries to prevent lipolysis as described in Zambon et al. 1993 (Zambon et al. 1993. J. Lipid Res. 34:1021-1028). Plasma lipid parameters were determined using commercial kits for total cholesterol (C) Chol R1 from Roche Diagnostics, Mannheim, Germany), non-esterified free fatty acids (FFA) (NEFA-C; Wako chemicals, Neuss, Germany), Total triglycerides (TG) (Triglyceride GPO-Trinder; Sigma, St. Louis, Mo.), β-hydroxybutyrate (β-HB; Sigma) and ALAT (Reflotron GPT; Roche). Serum amyloid A (SAA) was measured by ELISA (Biosource, Nivelles, Belgium) and fibrinogen by sandwich ELISA, as described in Koopman et al., 2005 (Koopman et al. 2005. Fibrinol Proteol 11:19). For lipoproteins fractionation, groupwise-pooled plasma was size-fractionated by fast protein liquid chromatography (FPLC) on a Superose 6 column (Äkta; Amersham Pharmacia Biotech, Uppsala, Sweden). Fractions were assayed for total C and TG as described. Hepatic VLDL-TG production: The rate of hepatic VLDL-TG production, de novo apoB secretion, and VLDL composition were determined in overnight-fasted mice. Mice were anaesthetized with vetranquil/fentanyl/midazolam i.p., and injected i.v. with 0.1 ml PBS containing 100 μCi Tran^35S-label™ (ICN Biomedicals, Irvine, Calif.) to measure the de novo apoB synthesis. After 30 min, the animals received a Triton WR1339 injection (Tyloxapol, Sigma; 500 mg/kg body weight in 100 μl saline) to prevent systemic lipolysis of newly-secreted hepatic VLDL-TG (Aalto-Setala et al. 1992. J. Clin. Invest 90:1889-1900.27) Blood samples were drawn at 0, 15, 30, 60, and 90 min after Triton WR1339 injection and plasma TG concentrations were determined. After 90 min, the animals were sacrificed and blood was collected by retro-orbital bleeding for isolation of VLDL. VLDL composition: VLDL particles (d<1.019) were separated from other lipoproteins in plasma by density gradient ultra-centrifugation, as described in Jong et al., 1996 (Jong et al. 1996. Arterioscler. Thromb. Vasc. Biol. 16:934-940). Protein content of the VLDL fraction was determined by Lowry's assay (Lowry et al., 1951. J. Biol. Chem. 193:265-275), and TG and total C were determined as described above. Phospholipids and free cholesterol were determined using standard commercial kits (Wako Chemicals, Neuss, Germany). The ^35S-apoB content of VLDL was measured after selective precipitation of apoB with isopropanol as described elsewhere (Li et al. 1996 J. Lipid Res. 37:210-220; Pietzsch et al. 1995. Biochim. Biophys. Acta 1254:77-88). In vivo clearance of VLDL-like TG-rich particles: To determine whether 1% PS accelerates the clearance of TG-rich lipoproteins from plasma, we used radiolabeled emulsion particles as a tool. VLDL-like emulsion particles containing 200 μCi of [^3H]triolein and 20 μCi of [^14C]cholesteryl oleate were prepared and characterized as described in Rensen et al. 1997 (Rensen et al., 1997. J. Lipid Res. 38:1070-1084). Fed mice were anaesthetized as described above and laparotomy was performed. […] After taking the last liver and blood sample, the remainder of the liver, heart, spleen, hind limb muscle, and gonadal, perirenal and intestinal white adipose tissues were harvested. Lipids were extracted overnight at 60° C. in 500 μL of Solvable™, and radioactivity was counted as described in Rensen et al., 1997 (supra). […]

APOE3*Leiden (E3L) mice = experiment: High fat high cholesterol diet feeding for 16 weeks (Example 1); format: in vivo
Protocol: Forty-five female heterozygous APOE3*Leiden […]) mice were fed a high fat and high cholesterol diet for four weeks (week -4 to 0). The mice were housed during the experiment in clean-conventional animal rooms (relative humidity 50-60%, temperature 21° C., light cycle 6 am to 6 pm). Mice were supplied with food and acidified tap water ad libitum. At week 0, the mice were randomized on the basis of plasma total triglyceride and cholesterol levels into a control group of fifteen mice and two treatment groups of fifteen mice. The groups were: • 1. high fat, high cholesterol diet only • 2. high fat, high cholesterol diet plus 0.7% (w/w) phytosphingosine • 3. high fat, 'high' cholesterol diet with a reduced cholesterol content, resulting in about the same plasma cholesterol level as was obtained in group 2. The treatment was continued for 16 weeks. During the treatment period, tail blood samples were obtained at week 0, 2, 4, 8, 12, and 16 to measure plasma cholesterol and triglyceride levels and to determine plasma lipoprotein composition. After sixteen weeks, mice were autopsied, liver weight was determined. Body weight and food consumption were determined every four weeks Dietary ingredients were provided by Hope Farms (Woerden, the Netherlands). For group 1 (high cholesterol), the hypercholesterolemic Western-type diet (W-diet) described by Nishina et al (J. Lipid Res. 1990; 31:859) was supplemented with cholesterol (0.5% w/w, final concentration) and with sodium cholate (0.05% w/w, final concentration). This powdered Western-type diet was mixed with 2% agar and freeze-dried as pellets. The diet for group 2 (treatment group) was prepared by the addition of 0.7% (w/w) phytosphingosine to the same powdered Western-type diet (i.e. also supplemented with cholesterol (0.5% w/w, final concentration) and sodium cholate (0.05% w/w, final concentration)). The supplemented diet mixture was mixed with 2% agar and freeze-dried as pellets. The diet W for group 3 (low cholesterol) contained 0.1% cholesterol, and 0.05% sodium cholate (w/w, final concentration). This powdered Western-type diet was mixed with 2% agar and freeze-dried as pellets. The diets were prepared every eight weeks, and stored in the dark at -20° C. Food was given ad libitum. Total cholesterol was measured using the kit Chol R1 from Roche. Total triglycerides were measured using the kit Triglycerides GPO-PAP from Roche. ALAT was measured by dry chemistry on a Reflotron (Roche).

APOE*3Leiden mice [2] = experiment: Plasma ALAT, SAA and fibrinogen (plasma inflammation markers); format: in vivo; details: 1% PS diet
Protocol: as §1, with “(supra). RNA isolation and RT-PCR: Livers from 4 h-fasted mice fed 1% PS-containing diet or control Western-type diet for 5 weeks were removed immediately after sacrifice, flushed with cold 0.9% NaCl and snap frozen in liquid nitrogen. Total RNA was isolated as described by Chomczynski and Sacchi (Chomczynski, P. and Sacchi, N. 1987. Anal. Biochem. 162:156-159) by use of RNA-Bee™ (Campro Scientific, Berlin, Germany). cDNA synthesis was performed according to Bloks et al (Bloks et al., 2001. J. Lipid Res. 42:41-50).” for “(supra).”

[3] = week 16, 0.7% (w/w) phytosphingosine in high fat, high cholesterol diet
[4] = week 16, 0.7% phytosphingosine, p<0.001

## CCCCCCCCCCCCCC[C@@H](O)[C@@H](O)[C@@H](N)CO [PS, phytosphingosine]
APOE*3Leiden mice [1]
  Uptake of [^14C]cholesteryl oleate or [^3H]TG-derived radioactivity by peripheral muscle and adipose tissues: No effects
APOE*3Leiden mice [1]; 5 weeks, fed mice
  Plasma clearance of [^14C]cholesteryl oleate, t1/2: 39.5 ± 5.3 min
  Serum clearance of [^3H]TG, t1/2: 4.7 ± 0.3 min
APOE*3Leiden mice [1]; at 10 min and 20 min after injection
  [^3H]TG uptake in the liver: increased significantly
APOE*3Leiden mice [1]; at 20 min
  Liver uptake of [^14C]cholesteryl oleate, change vs control: +60%
APOE3*Leiden (E3L) mice; 0.7% phytosphingosine, 16 weeks
  Body weight and food intake between the three groups: did not differ
APOE3*Leiden (E3L) mice; [3]
  Final mean body weight: 22.1 gram
  Final mean liver weight: 1.34 gram
  Final mean plasma ALAT values: 82 U/L
APOE3*Leiden (E3L) mice; [4]
  ALAT compared with high cholesterol group: significantly lower
  Liver weight compared with high cholesterol group 1: significantly lower
APOE*3Leiden mice [2]; 5 weeks
  Plasma ALAT, % Δ vs control: −79%
  Plasma SAA, % Δ vs control: −74%
APOE*3Leiden mice [2]; 5 weeks, 4 h-fasted
  Plasma ALAT: 41 ± 21 U/l
  Plasma SAA: 3 ± 0.3 µg/mL
  Plasma fibrinogen: 2.3 ± 0.7 mg/mL
APOE*3Leiden mice [2]; p<0.05
  Decrease of ALAT levels vs control: 79%
  Decrease of SAA levels vs control: 74%
